# Source: patent publication US20260274892A1, “MACROCYCLIC BROAD SPECTRUM ANTIBIOTICS” (RQx Pharmaceuticals, Inc., priority 2017, published 2026)
# Legend:
# [1] = test system: Methicillin Resistant Staphylococcus aureus strain USA 200; assay: Minimum inhibitory concentration (MIC), CLSI broth micro-dilution, S. aureus; assay type: cell-based; details: Staphylococcus aureus, MRSA / USA200; Table 6; MRSA USA 200; cation adjusted Mueller Hinton Broth + 0.002% Tween-80; 35° C., 22 hours
# Procedure, shortened: (§1)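 Antibacterial potency is measured as MIC by the CLSI broth dilution method. Bacteria at OD600 0.0005 in Tween-80-supplemented cation-adjusted Mueller Hinton broth face ten twofold compound dilutions for 22 h at 35° C.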
# [2] = test system: Escherichia coli ATCC 25922; assay: Minimum inhibitory concentration (MIC), CLSI broth micro-dilution, E. coli; assay type: cell-based; details: Escherichia coli
# Procedure, shortened: as §1
# [3] = ATCC25922, 22 h, Table 6, cation adjusted Mueller Hinton Broth + 0.002% Tween-80, 35° C.
SMILES,MIC [1] [µM],"MIC [2, 3] [µM]","MIC ([2]; ATCC25922, Table 6, cation adjusted Mueller Hinton Broth + 0.002% Tween-80, 35° C., 22 hours) [µM]"
"CCCCCCOc1ccc(-c2nc(C)c(C(=O)N[C@@H](CCN)C(=O)N(C)[C@@H]3C(=O)N[C@@H](C)C(=O)N[C@H](C(=O)NCC#N)Cc4ccc(OCCN)c(c4)-c4cc3ccc4OCCN)c(C)n2)cc1 (racemic) [Compound 332, rac-(8S,11S,14S)-3,18-bis(2-aminoethoxy)-N-(cyanomethyl)-11-methyl-14-[methyl-[rac-(2S)-4-amino-2-[[2-(4-hexoxyphenyl)-4,6-dimethyl-pyrimidine-5-carbonyl]amino]butanoyl]amino]-10,13-dioxo-9,12-diazatricyclo[13.3.1.12,6]icosa-1(18),2(20),3,5,15(19),16-hexaene-8-carboxamide]",0.0078,0.063,–
"COCCOc1ccc(-c2nc(C)c(C(=O)N[C@@H](CCN)C(=O)N(C)[C@@H]3C(=O)N[C@@H](C)C(=O)N[C@H](C(=O)NCC#N)Cc4ccc(OCCN)c(c4)-c4cc3ccc4OCCN)c(C)n2)cc1 (racemic) [Compound 333, rac-(8S,11S,14S)-3,18-bis(2-aminoethoxy)-N-(cyanomethyl)-11-methyl-14-[methyl-[rac-(2S)-4-amino-2-[[2-[4-(2-methoxyethoxy)phenyl]-4,6-dimethyl-pyrimidine-5-carbonyl]amino]butanoyl]amino]-10,13-dioxo-9,12-diazatricyclo[13.3.1.12,6]icosa-1(18),2(20),3,5,15(19),16-hexaene-8-carboxamide]",1,–,2
"Cc1nc(-c2ccc3c(c2)OCCO3)nc(C)c1C(=O)N[C@@H](CCN)C(=O)N(C)[C@@H]1C(=O)N[C@@H](C)C(=O)N[C@H](C(=O)NCC#N)Cc2ccc(OCCN)c(c2)-c2cc1ccc2OCCN (racemic) [Compound 334, rac-(8S,11S,14S)-3,18-bis(2-aminoethoxy)-N-(cyanomethyl)-11-methyl-14-[methyl-[rac-(2S)-4-amino-2-[[2-(2,3-dihydro-1,4-benzodioxin-6-yl)-4,6-dimethyl-pyrimidine-5-carbonyl]amino]butanoyl]amino]-10,13-dioxo-9,12-diazatricyclo[13.3.1.12,6]icosa-1(18),2(20),3,5,15(19),16-hexaene-8-carboxamide]",0.5,4,–
"Cc1nc(-c2ccc(OC3CCCC3)cc2)nc(C)c1C(=O)N[C@@H](CCN)C(=O)N(C)[C@@H]1C(=O)N[C@@H](C)C(=O)N[C@H](C(=O)NCC#N)Cc2ccc(OCCN)c(c2)-c2cc1ccc2OCCN (racemic) [Compound 336, rac-(8S,11S,14S)-3,18-bis(2-aminoethoxy)-N-(cyanomethyl)-11-methyl-14-[methyl-[rac-(2S)-4-amino-2-[[2-[4-(cyclopentoxy)phenyl]-4,6-dimethyl-pyrimidine-5-carbonyl]amino]butanoyl]amino]-10,13-dioxo-9,12-diazatricyclo[13.3.1.12,6]icosa-1(18),2(20),3,5,15(19),16-hexaene-8-carboxamide]",0.016,0.15,–
"Cc1nc(-c2ccc(OC3CCCCC3)cc2)nc(C)c1C(=O)N[C@@H](CCN)C(=O)N(C)[C@@H]1C(=O)N[C@@H](C)C(=O)N[C@H](C(=O)NCC#N)Cc2ccc(OCCN)c(c2)-c2cc1ccc2OCCN (racemic) [Compound 337, rac-(8S,11S,14S)-3,18-bis(2-aminoethoxy)-N-(cyanomethyl)-11-methyl-14-[methyl-[rac-(2S)-4-amino-2-[[2-[4-(cyclohexoxy)phenyl]-4,6-dimethyl-pyrimidine-5-carbonyl]amino]butanoyl]amino]-10,13-dioxo-9,12-diazatricyclo[13.3.1.12,6]icosa-1(18),2(20),3,5,15(19),16-hexaene-8-carboxamide]",0.012,0.11,–
"Cc1nc(-c2ccc(OCCC(C)(C)C)cc2)nc(C)c1C(=O)N[C@@H](CCN)C(=O)N(C)[C@@H]1C(=O)N[C@@H](C)C(=O)N[C@H](C(=O)NCC#N)Cc2ccc(OCCN)c(c2)-c2cc1ccc2OCCN (racemic) [Compound 338, rac-(8S,11S,14S)-3,18-bis(2-aminoethoxy)-N-(cyanomethyl)-11-methyl-14-[methyl-[rac-(2S)-4-amino-2-[[2-[4-(3,3-dimethylbutoxy)phenyl]-4,6-dimethyl-pyrimidine-5-carbonyl]amino]butanoyl]amino]-10,13-dioxo-9,12-diazatricyclo[13.3.1.12,6]icosa-1(18),2(20),3,5,15(19),16-hexaene-8-carboxamide]",0.012,0.13,–
"CCC(CC)Oc1ccc(-c2nc(C)c(C(=O)N[C@@H](CCN)C(=O)N(C)[C@@H]3C(=O)N[C@@H](C)C(=O)N[C@H](C(=O)NCC#N)Cc4ccc(OCCN)c(c4)-c4cc3ccc4OCCN)c(C)n2)cc1 (racemic) [Compound 339, rac-(8S,11S,14S)-3,18-bis(2-aminoethoxy)-N-(cyanomethyl)-11-methyl-14-[methyl-[rac-(2S)-4-amino-2-[[2-[4-(1-ethylpropoxy)phenyl]-4,6-dimethyl-pyrimidine-5-carbonyl]amino]butanoyl]amino]-10,13-dioxo-9,12-diazatricyclo[13.3.1.12,6]icosa-1(18),2(20),3,5,15(19),16-hexaene-8-carboxamide]",0.047,0.25,–
"Cc1nc(-c2ccc(OC3CCCCCC3)cc2)nc(C)c1C(=O)N[C@@H](CCN)C(=O)N(C)[C@@H]1C(=O)N[C@@H](C)C(=O)N[C@H](C(=O)NCC#N)Cc2ccc(OCCN)c(c2)-c2cc1ccc2OCCN (racemic) [Compound 340, rac-(8S,11S,14S)-3,18-bis(2-aminoethoxy)-N-(cyanomethyl)-11-methyl-14-[methyl-[rac-(2S)-4-amino-2-[[2-[4-(cycloheptoxy)phenyl]-4,6-dimethyl-pyrimidine-5-carbonyl]amino]butanoyl]amino]-10,13-dioxo-9,12-diazatricyclo[13.3.1.12,6]icosa-1(18),2(20),3,5,15(19),16-hexaene-8-carboxamide]",0.023,0.063,–
"CCCC(CCC)Oc1ccc(-c2nc(C)c(C(=O)N[C@@H](CCN)C(=O)N(C)[C@@H]3C(=O)N[C@@H](C)C(=O)N[C@H](C(=O)NCC#N)Cc4ccc(OCCN)c(c4)-c4cc3ccc4OCCN)c(C)n2)cc1 (racemic) [Compound 341, rac-(8S,11S,14S)-3,18-bis(2-aminoethoxy)-N-(cyanomethyl)-11-methyl-14-[methyl-[rac-(2S)-4-amino-2-[[4,6-dimethyl-2-[4-(1-propylbutoxy)phenyl]pyrimidine-5-carbonyl]amino]butanoyl]amino]-10,13-dioxo-9,12-diazatricyclo[13.3.1.12,6]icosa-1(18),2(20),3,5,15(19),16-hexaene-8-carboxamide]",0.016,0.13,–
"Cc1nc(-c2ccc(OC(C)(C)C)cc2)nc(C)c1C(=O)N[C@@H](CCN)C(=O)N(C)[C@@H]1C(=O)N[C@@H](C)C(=O)N[C@H](C(=O)NCC#N)Cc2ccc(OCCN)c(c2)-c2cc1ccc2OCCN (racemic) [Compound 342, rac-(8S,11S,14S)-3,18-bis(2-aminoethoxy)-N-(cyanomethyl)-11-methyl-14-[methyl-[rac-(2S)-4-amino-2-[[2-(4-tert-butoxyphenyl)-4,6-dimethyl-pyrimidine-5-carbonyl]amino]butanoyl]amino]-10,13-dioxo-9,12-diazatricyclo[13.3.1.12,6]icosa-1(18),2(20),3,5,15(19),16-hexaene-8-carboxamide]",0.097,0.39,–
"Cc1nc(-c2ccc(COC(C)(C)C)cc2)nc(C)c1C(=O)N[C@@H](CCN)C(=O)N(C)[C@@H]1C(=O)N[C@@H](C)C(=O)N[C@H](C(=O)NCC#N)Cc2ccc(OCCN)c(c2)-c2cc1ccc2OCCN (racemic) [Compound 343, rac-(8S,11S,14S)-3,18-bis(2-aminoethoxy)-N-(cyanomethyl)-11-methyl-14-[methyl-[rac-(2S)-4-amino-2-[[2-[4-(tert-butoxymethyl)phenyl]-4,6-dimethyl-pyrimidine-5-carbonyl]amino]butanoyl]amino]-10,13-dioxo-9,12-diazatricyclo[13.3.1.12,6]icosa-1(18),2(20),3,5,15(19),16-hexaene-8-carboxamide]",0.13,0.75,–
"CCCC1(Oc2ccc(-c3nc(C)c(C(=O)N[C@@H](CCN)C(=O)N(C)[C@@H]4C(=O)N[C@@H](C)C(=O)N[C@H](C(=O)NCC#N)Cc5ccc(OCCN)c(c5)-c5cc4ccc5OCCN)c(C)n3)cc2)CC1 (racemic) [Compound 346, rac-(8S,11S,14S)-3,18-bis(2-aminoethoxy)-N-(cyanomethyl)-11-methyl-14-[methyl-[rac-(2S)-4-amino-2-[[4,6-dimethyl-2-[4-(1-propylcyclopropoxy)phenyl]pyrimidine-5-carbonyl]amino]butanoyl]amino]-10,13-dioxo-9,12-diazatricyclo[13.3.1.12,6]icosa-1(18),2(20),3,5,15(19),16-hexaene-8-carboxamide]",0.016,0.13,–
"CCCCC1(Oc2ccc(-c3nc(C)c(C(=O)N[C@@H](CCN)C(=O)N(C)[C@@H]4C(=O)N[C@@H](C)C(=O)N[C@H](C(=O)NCC#N)Cc5ccc(OCCN)c(c5)-c5cc4ccc5OCCN)c(C)n3)cc2)CC1 (racemic) [Compound 347, rac-(8S,11S,14S)-3,18-bis(2-aminoethoxy)-N-(cyanomethyl)-11-methyl-14-[methyl-[rac-(2S)-4-amino-2-[[2-[4-(1-butylcyclopropoxy)phenyl]-4,6-dimethyl-pyrimidine-5-carbonyl]amino]butanoyl]amino]-10,13-dioxo-9,12-diazatricyclo[13.3.1.12,6]icosa-1(18),2(20),3,5,15(19),16-hexaene-8-carboxamide]",0.047,0.25,–
